According to patent US20250171762A1, “THERAPEUTICAL PEPTIDOMIMETIC” (UNIVERSITA' DEGLI STUDI DI ROMA "LA SAPIENZA", priority 2021, published 2025):
“Also recorded” adds a separate entry of the source. Like-named read-outs stand apart in the source and are kept apart here.

Tests used:
[1] = Plasma stability: incubation in human plasma, UPLC-MS quantification; format: in vitro ADME; conditions: for remaining at 3 h, 0.2 mM: read-out: peptide available after incubation in plasma
Protocol: Panel B. Time course decay of β32_33, PMT, PMT-8a and PMT-8b incubated up to 72 h with human plasma from four healthy subjects. […] The Y axis indicates the signal intensity of the four peptides. Samples of plasma were obtained from healthy volunteers and immediately used for the analysis. Either β32_33 peptide or PMT for the experiment in panel A, and β32_33 peptide, PMT, PMT-8a or PMT-8b for the experiment in panel B, was incubated in plasma at a final concentration of 0.2 mM, at 37° C., up to 3 h (A) or 72 h (B). At the indicated time points, i.e., T0 and 3 h (A) or T0, 1.5, 3, 6 and 72 h (B), aliquots of 200 μL were treated with 3 volumes of acetonitrile containing 1% formic acid and extracted by a solid phase extraction system to remove proteins and phospholipids. Samples were dried under vacuum, resuspended in 100 μL of 0.1% formic acid containing 5% acetonitrile, and analyzed with a Water Acquity H-Class UPLC system equipped with a single-quadruple mass detector with electrospray ionization source. Samples were separated onto a reverse phase C18 column by performing a gradient with two mobile phases consisting of 0.1% formic acid in water and 0.1% formic acid in acetonitrile at a flow rate of 0.5 mL/min. Quantification was performed by Selected lon Recording (SIR): at m/z=917.88, corresponding to the [M+2 H]^2+ion obtained from either β32_33 or PMT; at m/z=961.42, corresponding to the [M+H]^+ion obtained from PMT-8a; and at m/z=869.48, corresponding to the [M+H]^+ion obtained from PMT-8b.
In order to evaluate whether compounds (βp and d-βp) are stable in blood or hydrolyzed by plasma peptidases, we set up a chromatographic assay to evaluate compound concentration after incubation in human plasma.
Blood was drawn by venipuncture in vacutainer containing EDTA as an anticoagulant.
Two different samples from healthy volunteers were used. Plasma was separated by centrifugation and immediately used for the experiments. Each compound was dissolved in 500 uL plasma at a final concentration of 0.2 mM, and split into two aliquots, one of which was immediately analyzed to assess the basal compound level; the other was incubated at 37° C. for 3 hours under gentle shaking. In order to perform chromatographic analysis the samples were treated with 3 volumes of acetonitrile containing 1% formic acid, and then extracted by using the Ostro™ pass-through sample preparation system to remove proteins and phospholipids. Samples were dried under vacuum and then resuspended in 100 uL of 0.1% formic acid containing 5% acetonitrile, then directly injected onto the chromatographic column.
Chromatographic analyses were performed on a Water Acquity H-Class UPLC system (Waters, Milford, MA, USA), including a quaternary solvent manager (QSM), a sample manager with a flow through needle system (FTN), a photodiode array detector (PDA) and a single-quadruple mass detector with electrospray ionization source (ACQUITY QDa). Analyses were performed on a reverse phase C18 column (75 mm×3.2 mm i.d., 2.5 μm particle size). The mobile phase was solvent A, 0.1% formic acid in water, and solvent B, 0.1% formic acid in acetonitrile. The flow rate was 0.5 mL/min, the column temperature was set at 25° C. and the elution was performed by linearly increasing the concentration of solvent B up to 70% in 7 minutes. Mass spectrometric detection was performed in the positive electrospray ionization mode, using nitrogen as the nebulizer gas. Analyses were performed in the Total lon Current (TIC) mode with a mass range of 100-1200 m/z. The capillary voltage was 0.8 kV, cone voltage 8 V, ion source temperature 120° C. and probe temperature 600° C. Quantification of each compound was performed by Selected lon Recording (SIR) at m/z 917.88, corresponding to the […]

[2] = tested on: m·3243A>G mt-tRNA^Leu(UUR) mutant cybrids; assay: Cell viability, Trypan blue dye exclusion, galactose vs glucose medium; format: cell-based, human; conditions: for viability of mutant cybrids vs non treated mutant cells: galactose medium
Protocol: For viability assessment, cells were plated in either glucose or galactose medium. The reason for this is that a viability phenotype can be appreciated in cells growing on galactose, which forces cells to rely on mitochondrial respiration, but not in cells growing on glucose. After 24 hours incubation, the number of viable cells in the galactose medium was normalized to the number of viable cells in glucose at the same time point, which represents the normal growth condition. Data are compared with the value of mutant cells incubated with vehicle only. Mean±SEM of at least three independent experiments is shown.
For viability assessment, cells were plated in either glucose or galactose medium. The reason for this is that a viability phenotype can be appreciated in cells growing on galactose, which forces cells to rely on mitochondrial respiration, but not in cells growing on glucose. After 24 hours incubation the number of viable cells in galactose medium was normalized to the number of viable cells in glucose (that represents the normal growth condition) at the same time point. Data are compared with the value of mutant cells incubated with vehicle only. Means±SEM of at least two independent experiments are shown.
Previously established osteosarcoma derived (143B.TK-) cybrid cell lines from patients, which bear either the m·3243A>G mutation in mt-tRNA^Leu(UUR) or the m·8344A>G mutation in mt-tRNA^Lys, and controls were used (generous gift from Dr Valeria Tiranti and Dr Valerio Carelli).
Cybrid cells were cultured in Dulbecco's modified Eagle's medium (DMEM), supplemented with 4.5 g/l d-glucose, 10% foetal bovine serum (FBS), 2 mM I-glutamine, 50 μg/ML uridine, 100 U/mL penicillin, and […] (referred to as glucose medium) in a humidified atmosphere of 95% air and 5% CO2 at 37° C. For cell viability experiments, cells were grown either in glucose medium or in glucose-free DMEM, supplemented with 5 mM galactose, […] sodium pyruvate, and 10% FBS (referred to as galactose medium). The reason for using the latter medium is that a pathological phenotype can be appreciated in cells growing on galactose, which forces cells to rely on mitochondrial respiration, but not in cells growing on glucose.
[…] Cells were switched in glucose or galactose and after 24 hours cell viability was measured by the Trypan blue dye exclusion assay. Cells were harvested with 0.25% trypsin and 0.2% EDTA, washed, suspended in PBS in the presence of Trypan blue solution (Sigma-Aldrich) at 1:1 ratio and counted using a hemocytometer. The number of viable cells in galactose medium was expressed as a percentage of the number of cells in glucose medium.
To evaluate the effect of the compounds on viability, cybrids were grown in glucose-free medium supplemented with galactose (galactose medium), a condition that both forces cells to rely on the mt respiratory chain for ATP synthesis and causes a significant growth reduction in the presence of mutations.
To evaluate the effect of PMT and M-PMT on viability, cybrids were grown in glucose-free medium supplemented with galactose (galactose medium), a condition that both forces cells to rely on the mt respiratory chain for ATP synthesis and causes a significant growth reduction in the presence of mutations.

[3] = first experiment, plasma of two healthy volunteers, 37° C., 0.2 mM, 3 hours (FIG. 4A)
[4] = human, human plasma (EDTA) from healthy volunteers, first experiment, plasma of two healthy volunteers, 37° C., 0.2 mM, 3 hours (FIG. 4A)
[5] = second experiment, plasma of four healthy volunteers, 3 hours (FIG. 4B)

Compound	peptide available after incubation in plasma [1, 3]	detectable degradation in plasma ([1]; first experiment, plasma of two healthy volunteers, 3 hours)	plasma stability compared with another peptide ([1]; human plasma, FIG. 4)	remaining at 3 h, 0.2 mM [1, 4]	remaining at 6 h, 0.2 mM ([1]; human, human plasma from healthy volunteers, second experiment, 6 h, read-out: peptide present after incubation in plasma)	peptide available after incubation in plasma [1, 5]	detectable degradation in plasma ([1]; second experiment, plasma of four healthy volunteers, up to 72 h)	degraded peptide after incubation in plasma ([1]; first experiment, plasma of two healthy volunteers, 37° C., 3 hours (FIG. 4A))	metabolised at 3 h, 0.2 mM ([1]; human, human plasma (EDTA) from healthy volunteers, first experiment, plasma of two healthy volunteers, 37° C., 3 hours (FIG. 4A), read-out: degraded peptide after incubation in plasma)	metabolised at 6 h, 0.2 mM ([1]; human, human plasma from healthy volunteers, second experiment, 6 h, read-out: peptide degraded after incubation in plasma)	remaining at 1.5 h, 0.2 mM ([1]; human, human plasma from healthy volunteers, second experiment, plasma of four healthy volunteers, 1.5 h (FIG. 4B), read-out: starting amount present after incubation in plasma)	remaining at 3 h, 0.2 mM ([1]; human, human plasma from healthy volunteers, second experiment, plasma of four healthy volunteers, 3 hours (FIG. 4B))	viability of mutant cybrids vs non treated mutant cells ([2]; 0.5 μM, 24 hours (FIG. 6))	viability of mutant cybrids vs non treated mutant cells ([2]; 2 μM, 24 hours (FIG. 6))	viability of mutant cybrids vs non treated mutant cells ([2]; 5 μM, 24 hours)	lower concentration improving viability with respect to PMT ([2]; m·3243A>G mutant cybrids, FIG. 6)
CC[C@@H](C)[C@@H](NC(=O)[C@@H](CC(C)C)NC(=O)[C@@H](C)NC(=O)[C@H](NC(=O)[C@@H](CCCNC(=N)N)NC(=O)[C@H]1CCCN1C(=O)[C@@H](CO)NC(=O)[C@@H](CC(C)C)NC(=O)[C@@H](Cc1ccccc1)NC(=O)[C@@H](CO)NC(=O)[C@@H](CCCCN)NC(=O)[C@H](N)CCCCN)[C@H](C)O)C(=O)N[C@H](CC(N)=O)C(=O)N[C@H](Cc1ccccc1)C(=O)N[C@H](CC(C)C)C(=O)N[C@@H](C(=O)O)C(C)C [PMT, d(K)d(K)d(S)d(F)d(L)d(S)d(P)d(R)d(T)d(A)d(L)d(I)d(N)d(F)d(L)d(V)]	100%	does not undergo visible degradation; also recorded: did not undergo detectable degradation	consistently higher stability than the β32_33 peptide; also recorded: higher plasma stability than the β32_33 peptide at all time points; also recorded: slower degradation than the β32_33 peptide	100%	> 50%	> 63%	did undergo detectable degradation									
CC[C@H](C)[C@H](NC(=O)[C@H](CC(C)C)NC(=O)[C@H](C)NC(=O)[C@@H](NC(=O)[C@H](CCCNC(=N)N)NC(=O)[C@@H]1CCCN1C(=O)[C@H](CO)NC(=O)[C@H](CC(C)C)NC(=O)[C@H](Cc1ccccc1)NC(=O)[C@H](CO)NC(=O)[C@H](CCCCN)NC(=O)[C@@H](N)CCCCN)[C@@H](C)O)C(=O)N[C@@H](CC(N)=O)C(=O)N[C@@H](Cc1ccccc1)C(=O)N[C@@H](CC(C)C)C(=O)N[C@H](C(=O)O)C(C)C [β32_33, KKSFLSPRTALINFLV, reference compound]	70%			70%		17%		at least 30%	30%	90%	> 85%	17%				
FRFKKKSFLSPRTALINFLV (SITE 1 d-Phenylalanine; SITE 2 d-Arginine; SITE 3 d-Phenylalanine; SITE 4 d-Lysine; SITE 5 d-Lysine; SITE 6 d-Lysine; SITE 7 d-Serine; SITE 8 d-Phenylalanine; SITE 9 d-Leucine; SITE 10 d-Serine; SITE 11 d-Proline; SITE 12 d-Arginine; SITE 13 d-Threonine; SITE 14 d-Alanine; SITE 15 d-Leucine; SITE 16 d-Isoleucine; SITE 17 d-Asparagine; SITE 18 d-Phenylalanine; SITE 19 d-Leucine; SITE 20 d-Valine) [M-PMT]													significantly improves	significantly improved	significantly improved	10 fold
